This is an account of results in US20230068990A1, “PLATELET STORAGE METHODS AND COMPOSITIONS” (Platefuse, Inc., priority 2020, published 2023).

Some results are limits rather than exact numbers.

The nature of data set [1]: Pharmacokinetic study of (S)G04 in mice, serum UPLC-MS/MS. The class given is in vivo. Conditions: IV injection of 10 and 50 μM in PAS buffer. The method, then:
Standard (S)G04 was diluted from DMSO stock (50 mM) with PAS buffer into 10 and 50 μM, administered to mice via IV injection, and serum samples were collected at time points 1, 3, 10, 30 min, and stored at −80° C. before analysis. PK samples from mice serum (retro orbital bleed) were usually 20-100 μL.
A calibration curve in the range of 0-1 μM, i.e. 0, 0.01, 0.05, 0.1, 0.5, 1 μM, was prepared by spiking standard solution ([…] (S)G04 in PAS buffer) into blank mouse serum and then conducting serial dilution accordingly.
QC samples were prepared in the same way with final concentration of 0.05 and 0.5 μM.
Samples were prepared by carrying out the following steps. Add 20 μL of mouse serum (PK samples, calibrators and QCs), and 20 μL of internal standard in methanol, vortex for 30 secs. Add 100 μL of ice cold MeOH then vortex for 1 min. Let sit for 5 minutes before submitting to centrifuge for 10 minutes at 21,100×g (RCF) at 4° C. Take 100 μL of the supernatant and transfer to autosampler vial (max recovery, Waters). Put a cap on the vial, and load vials onto UPLC-MS autosampler for analysis. Because organic solvent evaporates relatively quickly at room temperature, samples in organic solvents should not be left at room temperature longer than 6 hr before injection. Set up the UPLC-MS/MS system: cleaning cone, in accordance with the manufacturer's Operation SOP/documents. […]

The test system of data set [2] is congenic murine platelets. Description: In vivo clot formation: tail bleeding time of aspirinated mice after platelet transfusion. Conditions: 10 μM, murine platelets stored cold (1-6° C.) 4 hours, 24 hours post-administration of platelets. The method, then:
Next, the influence of G04 ((S)G04 and (R)G04) on in vivo clot formation was examined. Congenic murine platelets were stored in cold (1-6° C.) for 4 hours and then administered to mice 24 hours after administration of aspirin. Bleeding time was measured for aspirinated mice receiving no platelets, vehicle-only platelets stored at room temperature, vehicle-only cold-stored platelets, vehicle+(R)G04 (75 μM) cold-stored platelets, and vehicle+(S)G04 (10 μM) cold-stored platelets. The results were compared to control non-aspirinated mice (Basal).

In data set [3] the test system is cold-stored human platelets. Description: Human platelet recovery after xenotransfusion of cold-stored human platelets into NSG mice. It is filed as in vivo, human platelets in NOD/SCID/gc-/- (NSG) mice. Particulars: 10 μM in PAS-3M, cold storage 1-6° C. for 7 or 14 days, followed 24 hours post-transfusion. The method, then:
To assess (S)G04 and (R)G04 prevention of platelet activation in vivo, xenotransfusion was performed of long-term (day 7, FIG. 3 and day 14, FIG. 4) stored solutions by taking an aliquot (equivalent to 1×10^6 platelets) of CFSE-labeled cold-stored human platelets (Acrodose, pooled platelets from four ABO identical donors) that were transfused to conditioned NOD/SCID/gc−/− (NSG) mice and followed for 24 hours post-transfusion.
Four storage conditions were tested. In all storage conditions, the vehicle was the platelet additive solution PAS-3M (Grifols, Barcelona, Spain). The storage conditions varied as follows (1) room temperature storage in vehicle only (RT-Vehicle), (2) cold storage (1-6° C., average ˜2° C.) in vehicle only (Cold-Vehicle), (3) cold storage in vehicle with 10 μM (S)G04 (Cold-G04-S), (4) cold storage in vehicle with 75 μM (R)G04 (Cold-G04-R).
Data is presented as an average of a triplicate analysis. […] Data is presented as an average of a triplicate analysis.

Data set [4] concerns washed human platelet suspension. Put plainly: Inhibition of collagen-induced platelet aggregation (aggregometer). The class given is cell-based. Conditions: washed human platelets, 2 min preincubation, collagen 4 μg/ml, read-out 6 min after induction. The method, then:
Platelet shape change in washed platelets was monitored using an aggregometer and the decrease in light transmittance following addition of an agonist (Huzoor et al., 1993). For the purpose of this analysis, collagen was used as the agonist. Briefly, a washed human platelet suspension was incubated at 37° C. in a Lumi-Aggregometer (Chrono-Log Corporation) with stirring at 900 rpm, followed by the addition of dimethylsulfoxide (DMSO) as a control vehicle, or DMSO containing (S)G04 or (R)G04 (FIG. 1A). (S)G04 and (R)G04 were tested at concentrations of 1, 5, 10, 30 and 50 μM.
After incubating the samples with the respective compound for 2 minutes, platelet aggregation was induced by adding collagen ([…]) and the relative aggregation value was read out at 6 min after the induction. A dose response for each compound was derived.
In these experiments, a collagen concentration of 4 μg/ml was used. The IC50 values calculated for (R)G04 and (S)G04 are 40 μM and 4 μM, respectively.

On to `N[C@@H](Cc1c[nH]c2ccccc12)C(=O)N/N=C/c1ccc2nccnc2c1` [(S)G04], for which the “reduction of the injection concentration in 1 minute” value in data set [1] is greater than 100 ×. Besides, the “bleeding time of aspirinated mice” value in data set [2] is on record as “completely corrected the bleeding time”. Moreover, the “survival of cold-stored platelets (recovery and AUC) after xenotransfusion” value in data set [3] is on record as “completely prevented the decreased survival”. In data set [4], the IC50 is 4 µM.

By IC50 is commonly meant the point on the concentration scale where inhibition reaches its midpoint.
